Data as given in patent US20240327320A1, “NOVEL ROUTES OF CHEMICAL SYNTHESIS OF 20S(OH)D3, 20S,25(OH)2D3, 20S,23S(OH)2D3, AND 20S,23R(OH)2D3 AND THEIR MODIFICATION OF THE IMMUNE ACTIVITY OF PBMCS” (United State Government as represen ted by the Department …, priority 2023, published 2024).

Legend:
[1] = system: Human dermal fibroblasts (HDFn); assay: Proliferation, MTS assay, fibroblasts; assay type: cell-based; conditions: 24 h or 48 h, 0.1-100 nM, FIG. 6
Description: (§1) Human dermal fibroblasts isolated from the skin of black neonates (HDFn) and human epidermal (HaCaT) keratinocytes cultured as described previously (Slominski A, et. al., (2013) The Journal of Clinical Endocrinology and Metabolism 98(2) E298-303; Slominski A T, et. al., (2011) Am J Physiol Cell Physiol 300(3) C526-41) were used for the experiments. Briefly, HDFn were plated onto 96-well plates at a confluence of about 70% in their seventh passage. Both HDFn and HaCaT keratinocytes were treated with 20S(OH)D3, 20S,25(OH)2D3, 20S,23S(OH)2D3, 20S,23R(OH)2D3 or 1α,25(OH)2D3 (Sigma-Aldrich, St. Louis, MO, USA) dissolved in ethanol and diluted in DMEM containing charcoal-treated serum, as previously described (Janjetovic Z, et. al., (2021) Endocrinology 162(1); Chaiprasongsuk A, et. al., (2020) Free Radic Biol Med 155 87-98; Slominski A T, et. al., (2011) Am J Physiol Cell Physiol 300(3) (2011) C526-41). The vehicle control comprised 0.1% ethanol. Proliferation was estimated using MTS (Promega, Madison, WI) assay. The number of viable cells was measured in 6 replicates.
(§2) Referring to FIG. 6A-D, inhibition of cell proliferation by 20S(OH)D3, 20S,25(OH)2D3, 20S,23S(OH)2D3 and 20S,23R(OH)2D3 in comparison to 1α,25(OH)2D3 is represented. […] Data are means±SD (n=6) and were analyzed using Student's t-test with p<0.05 (*), p<0.01 (**) or p<0.001 (***).

[2] = system: Human epidermal (HaCaT) keratinocytes; assay: Proliferation, MTS assay, keratinocytes; assay type: cell-based; conditions: 24 h or 48 h, 0.1-100 nM, FIG. 6
Description: as §1, §2

LXRβ = target: T1, LXRβ (Homo sapiens, UniProt P55055); assay: LanthaScreen TR-FRET LXRβ coactivator assay; assay type: biochemical; conditions: TR-FRET ratio 520/495 nm, FIG. 8E-F
T1 construct: purchased Thermo Fisger Scientific, Inc
T1 sequence (P55055 222-460 limits assumed): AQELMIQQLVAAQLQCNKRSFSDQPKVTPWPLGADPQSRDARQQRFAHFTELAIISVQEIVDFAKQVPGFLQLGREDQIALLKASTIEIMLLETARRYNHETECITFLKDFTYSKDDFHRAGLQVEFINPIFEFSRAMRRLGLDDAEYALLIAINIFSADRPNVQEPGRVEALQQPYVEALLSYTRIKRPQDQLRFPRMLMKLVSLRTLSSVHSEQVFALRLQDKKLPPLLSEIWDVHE
Description: The bindings were performed using the LanthaScreen TR-FRET LXRa/0 Coactivator kit (Thermo Fisger Scientific, Inc., Waltham, MA) as described previously (Slominski A T, et. al., (2021) Sci Rep 11(1) 8002). Briefly, TR-FRET ratios were calculated by dividing the emission at 520 nm by that at 495 nm using Synergy neo2 (BioTek, Winooski, VT).

Human AhR = target: T2, Human AhR (Homo sapiens, UniProt P35869); assay: Human AhR Reporter Assay System (luciferase); assay type: cell-based; conditions: 23 h treatment
T2 construct: purchased Indigo Biosciences
T2 sequence (P35869 11-848): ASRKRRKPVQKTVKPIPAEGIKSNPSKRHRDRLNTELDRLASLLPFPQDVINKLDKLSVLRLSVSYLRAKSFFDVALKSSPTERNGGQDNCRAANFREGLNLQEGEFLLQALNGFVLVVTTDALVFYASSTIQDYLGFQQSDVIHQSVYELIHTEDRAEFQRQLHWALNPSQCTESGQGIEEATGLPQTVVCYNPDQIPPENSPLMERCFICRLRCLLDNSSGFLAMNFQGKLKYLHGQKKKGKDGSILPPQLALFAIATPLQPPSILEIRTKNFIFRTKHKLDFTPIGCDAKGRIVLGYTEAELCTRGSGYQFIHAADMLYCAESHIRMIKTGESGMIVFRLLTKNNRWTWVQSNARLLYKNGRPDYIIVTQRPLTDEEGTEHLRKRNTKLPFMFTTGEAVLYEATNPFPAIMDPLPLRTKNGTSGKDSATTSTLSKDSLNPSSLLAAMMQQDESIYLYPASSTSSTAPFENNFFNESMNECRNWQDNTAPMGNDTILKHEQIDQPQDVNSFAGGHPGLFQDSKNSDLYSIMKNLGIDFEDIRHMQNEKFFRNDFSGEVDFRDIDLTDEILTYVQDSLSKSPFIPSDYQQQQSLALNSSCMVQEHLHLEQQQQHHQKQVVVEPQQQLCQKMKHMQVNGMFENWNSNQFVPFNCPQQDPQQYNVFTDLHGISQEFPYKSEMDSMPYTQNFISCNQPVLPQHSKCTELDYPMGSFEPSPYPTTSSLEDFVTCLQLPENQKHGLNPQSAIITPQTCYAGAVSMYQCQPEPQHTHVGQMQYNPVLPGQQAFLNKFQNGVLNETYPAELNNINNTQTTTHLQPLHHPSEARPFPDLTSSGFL
Description: The binding of chemically synthesized secosteroids to AhR was tested using the Human AhR Reporter Assay System (Indigo Biosciences, State College, PA, USA) following the manufacturer's protocol and as detailed previously (Slominski A T, et. al., (2018) Int J Mol Sci 19(10)). Briefly, the cells including the luciferase reporter gene linked to an AhR-responsive promoter were treated with the compounds for 23 h and the luminescence signal was measured using Cytation 5 (Biotek, Winooski, VT, USA) after treatment with the detection substrate provided in the kit system.

activity on AhR (Human AhR)	SMILES	inhibition of fibroblast proliferation [1]	inhibition of keratinocyte proliferation [2]	activity on LXRβ (LXRβ)
–	C=C1CC[C@H](O)C/C1=C/C=C1\CCC[C@@]2(C)[C@H]1CC[C@@H]2[C@@](C)(O)CCCC(C)C [20S(OH)D3, (20S)-20-Hydroxyvitamin D3]	inhibits fibroblast and keratinocyte proliferation	inhibits fibroblast and keratinocyte proliferation	–
reverse agonist	C=C1CC[C@H](O)C/C1=C/C=C1\CCC[C@@]2(C)[C@H]1CC[C@@H]2[C@@](C)(O)C[C@H](O)CC(C)C [20S,23R(OH)2D3, (20S,23R)-20,23-Dihydroxyvitamin D3]	–	–	less efficient in activation of LXRβ than 20S,23S(OH)2D3
agonistic activity	C=C1CC[C@H](O)C/C1=C/C=C1\CCC[C@@]2(C)[C@H]1CC[C@@H]2[C@@](C)(O)C[C@@H](O)CC(C)C [20S,23S(OH)2D3, (20S,23S)-20,23-Dihydroxyvitamin D3]	–	–	better affinity with LXRβ
–	C=C1CC[C@H](O)C/C1=C/C=C1\CCC[C@@]2(C)[C@H]1CC[C@@H]2[C@@](C)(O)CCCC(C)(C)O [20S,25(OH)2D3, (20S)-20,25-Dihydroxyvitamin D3]	inhibits fibroblast and keratinocyte proliferation	inhibits fibroblast and keratinocyte proliferation	–
